Reference: US20110294843A1, “ADMINISTRATION SCHEME OF POLAR OPIOID METABOLITES FOR POST-OPERATIVE PAIN MANAGEMENT” (PAION UK Limited, priority 2008, published 2011)
Read-outs that look alike come from different tables or passages of the source.

Experiment: Pharmacokinetics of M6G at single and multiple intravenous doses in healthy volunteers
Type: in vivo, human
Conditions: for MRT inf / Vd / half-life / clearance / AUC(0-inf) / Cmax: both sexes, human, plasma, iv; for MRT inf: read-out: MRT0-∞; for Vd: read-out: Vss; for half-life: read-out: t½ (converted); for AUC(0-inf): read-out: AUC0-∞; for Cmax: read-out: Cmax; for CLss / MRT24-∞: multiple dose, Dose 5-15 mg
Procedure: Healthy male and female subjects were divided into two groups (A and B) with 12 in each. Group A received three single intravenous infusions of M6G over 5 mins at levels of 15, 30 and 45 mg/70 kg in random order, having taken 50 mg of naloxone orally 24 hrs beforehand. There was a seven-day wash-out period between each dose. Blood samples were taken pre-dose and at the following time-points: 3, 5, 15, 30 mins and 1, 2, 3, 4, 6, 12 and 24 hrs after the start of the infusion. Group, B received five, 15 mg/70 kg, intravenous infusions of M6G, each over five minutes, at 6-hourly intervals, having taken a 50 mg oral dose of naloxone 24 hrs before the first infusion. Blood samples were taken before each of the 5 doses, and at 3, 5, 15, 30 mins and at 1, 2, 3 and 4 hrs after the initiation of the 1st and 5th infusions and at 6 hrs after the 5th dose. Vital signs (supine blood pressure, pulse, respiratory rate and oral temperature), respiration rate, pulse oximetry and adverse events were monitored during the study. Plasma levels of M6G were measured using HPLC/ms/ms.

[1] = 15 mg/70 kg, single 5 min iv infusion 15 mg, Geometric Mean
[2] = 15 mg/70 kg, single 5 min iv infusion 15 mg, Mean
[3] = 15 mg/70 kg, single 5 min iv infusion 15 mg, Median
[4] = 30 mg/70 kg, single 5 min iv infusion 30 mg, Geometric Mean
[5] = 30 mg/70 kg, single 5 min iv infusion 30 mg, Mean
[6] = 30 mg/70 kg, single 5 min iv infusion 30 mg, Median
[7] = 45 mg/70 kg, single 5 min iv infusion 45 mg, Geometric Mean
[8] = 45 mg/70 kg, single 5 min iv infusion 45 mg, Mean
[9] = 45 mg/70 kg, single 5 min iv infusion 45 mg, Median

CN1CC[C@]23c4c5ccc(O)c4O[C@H]2[C@@H](OC2OC(C(=O)O)C(O)C(O)C2O)C=CC3[C@H]1C5 (stereo partly drawn) [M6G, (5α,6α)-7,8-Didehydro-4,5-epoxy-3-hydroxy-17-methylmorphinan-β-yl-β-D-glucopyranosiduronic acid]
MRT inf [1]: 1.64 h | Vd [1]: 12.9 L | half-life [1]: 1.46 h | clearance [2]: 133 mL/min | AUC(0-inf) [2]: 1930 ng·h/mL | Cmax [2]: 1860 ng/mL | MRT inf [2]: 1.65 h | Vd [2]: 13 L | half-life [2]: 1.48 h | clearance [3]: 133 mL/min | AUC(0-inf) [3]: 1880 ng·h/mL | Cmax [3]: 1650 ng/mL | MRT inf [3]: 1.69 h | Vd [3]: 12.6 L | half-life [3]: 1.56 h | clearance [4]: 121 mL/min | AUC(0-inf) [4]: 4140 ng·h/mL | Cmax [4]: 3870 ng/mL | MRT inf [4]: 1.76 h | Vd [4]: 12.7 L | half-life [4]: 1.7 h | clearance [5]: 122 mL/min | AUC(0-inf) [5]: 4190 ng·h/mL | Cmax [5]: 3980 ng/mL | MRT inf [5]: 1.77 h | Vd [5]: 12.8 L | half-life [5]: 1.72 h | clearance [6]: 125 mL/min | AUC(0-inf) [6]: 4000 ng·h/mL | Cmax [6]: 4110 ng/mL | MRT inf [6]: 1.81 h | Vd [6]: 12.2 L | half-life [6]: 1.81 h | clearance [7]: 128 mL/min | AUC(0-inf) [7]: 5850 ng·h/mL | Cmax [7]: 5720 ng/mL | MRT inf [7]: 1.66 h | Vd [7]: 12.8 L | half-life [7]: 1.62 h | clearance [8]: 130 mL/min | AUC(0-inf) [8]: 5910 ng·h/mL | Cmax [8]: 5860 ng/mL | MRT inf [8]: 1.68 h | Vd [8]: 12.9 L | half-life [8]: 1.64 h | clearance [9]: 136 mL/min | AUC(0-inf) [9]: 5500 ng·h/mL | Cmax [9]: 5860 ng/mL | MRT inf [9]: 1.78 h | Vd [9]: 13.1 L | half-life [9]: 1.69 h | accumulation, AUC0-∞ (five 15 mg iv infusions at 6 hour intervals): 2.9% | safety (healthy volunteers, single and multiple iv doses): No clinically significant safety issues | CLss (Geometric Mean): 7261 mL/h | MRT24-∞ (Geometric Mean): 1.63 h | CLss (Mean): 7303 mL/h | MRT24-∞ (Mean): 1.65 h | CLss (Median): 7173 mL/h | MRT24-∞ (Median): 1.64 h
